Results from article PMC7932537, “Quantitative profiling of protease specificity” (PLoS Computational Biology, 2021).

Legend:
MMP-2 [1] = assay: Substrate phage display with NGS: relative probability (RP) of P3-P1' tetramer clusters; format: biochemical, human; conditions: MMP2;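 also: ratio of tetramer probability after protease selection to that in naive phage library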
MMP-2 [2] = biological target: T1, MMP-2 (Homo sapiens, UniProt P08253); assay: K(obs) of individual phage substrates (set of 1369); format: biochemical; conditions: MMP2
T1 sequence (P08253 110-660): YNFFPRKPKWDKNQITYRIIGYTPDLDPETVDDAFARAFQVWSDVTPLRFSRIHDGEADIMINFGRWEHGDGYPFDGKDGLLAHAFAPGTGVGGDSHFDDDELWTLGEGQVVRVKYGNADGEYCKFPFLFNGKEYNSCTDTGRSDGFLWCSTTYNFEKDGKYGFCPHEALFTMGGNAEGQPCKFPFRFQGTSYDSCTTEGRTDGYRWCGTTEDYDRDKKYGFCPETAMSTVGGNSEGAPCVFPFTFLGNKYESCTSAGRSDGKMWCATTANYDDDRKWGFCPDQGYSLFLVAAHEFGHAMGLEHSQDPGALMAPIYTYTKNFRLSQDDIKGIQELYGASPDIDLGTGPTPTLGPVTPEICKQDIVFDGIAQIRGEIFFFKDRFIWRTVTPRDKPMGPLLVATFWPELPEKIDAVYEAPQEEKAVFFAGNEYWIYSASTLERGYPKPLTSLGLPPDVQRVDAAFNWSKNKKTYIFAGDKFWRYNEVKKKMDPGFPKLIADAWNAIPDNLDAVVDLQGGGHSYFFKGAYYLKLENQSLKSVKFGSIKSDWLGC

MMP-9 = MMP-9 (Homo sapiens, UniProt P14780); assay: as above; format: biochemical; conditions: MMP9
[3] = RP of the P3-P1' tetramer contained in the substrate
[4] = individual phage substrate of the set of 1369 peptides, cleavage position marked by '-'
[5] = individual phage substrate of the set of 1369 peptides, dash in the sequence marks the cleavage position
[6] = RP of the P3-P1' tetramer contained in the substrate (substrate phage display with NGS)
[7] = individual phage substrates, set of 1369 peptides, cleavage position marked by hyphen in sequence
[8] = individual phage substrates, set of 1369 peptides, hyphen in sequence marks cleavage position

Chain of MMP-9 (P14780 94-707): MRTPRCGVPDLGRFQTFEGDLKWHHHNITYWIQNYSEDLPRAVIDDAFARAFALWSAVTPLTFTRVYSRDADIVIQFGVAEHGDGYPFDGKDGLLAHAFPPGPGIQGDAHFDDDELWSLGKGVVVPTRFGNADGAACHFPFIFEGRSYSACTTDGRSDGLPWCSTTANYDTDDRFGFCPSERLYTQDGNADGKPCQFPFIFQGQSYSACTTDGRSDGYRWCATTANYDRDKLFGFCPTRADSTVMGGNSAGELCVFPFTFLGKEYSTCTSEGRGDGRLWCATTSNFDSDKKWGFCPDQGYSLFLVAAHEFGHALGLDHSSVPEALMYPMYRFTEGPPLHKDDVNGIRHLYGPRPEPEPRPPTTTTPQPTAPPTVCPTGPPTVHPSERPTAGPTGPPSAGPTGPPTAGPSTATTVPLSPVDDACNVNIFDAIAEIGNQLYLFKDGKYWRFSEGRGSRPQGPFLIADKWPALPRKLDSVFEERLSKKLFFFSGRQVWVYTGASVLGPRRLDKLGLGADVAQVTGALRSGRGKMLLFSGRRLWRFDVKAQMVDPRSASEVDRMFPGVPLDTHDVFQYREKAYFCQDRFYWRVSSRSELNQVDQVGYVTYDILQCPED

Substance	relative probability (RP) (MMP-2 [1]; [3])	Kobs (MMP-2 [2]; [4])	Kobs (MMP-9; [5])	relative probability (RP) (MMP-2 [1]; [6])	Kobs (MMP-2 [2]; [7])	Kobs (MMP-9; [8])
RTGLY-LTASG	0.07615	1283.43 M⁻¹ s⁻¹	0 M⁻¹ s⁻¹	–	–	–
LAWAH-ITASG	0.05752	1030.73 M⁻¹ s⁻¹	0 M⁻¹ s⁻¹	–	–	–
MSWSA-LTASG	25.8217	12792.1 M⁻¹ s⁻¹	113.394 M⁻¹ s⁻¹	–	–	–
GTLMG-LYTAS	28.5499	7015.91 M⁻¹ s⁻¹	171.876 M⁻¹ s⁻¹	–	–	–
SGAFN-LYSTA	16.2959	12792.1 M⁻¹ s⁻¹	12792.1 M⁻¹ s⁻¹	–	–	–
SGPAW-MKGTA	–	–	–	34.3571	9740.44 M⁻¹ s⁻¹	7386.83 M⁻¹ s⁻¹
GEFAA-LQTAS	–	–	–	18.8584	2615.58 M⁻¹ s⁻¹	323.705 M⁻¹ s⁻¹
GNVRN-LITAS	–	–	–	29.2567	12792.1 M⁻¹ s⁻¹	7386.83 M⁻¹ s⁻¹
SGPKW-IIQTA	22.5059	2687.73 M⁻¹ s⁻¹	12792.1 M⁻¹ s⁻¹	–	–	–
HYPLN-STASG	18.9358	4335.13 M⁻¹ s⁻¹	8321.48 M⁻¹ s⁻¹	–	–	–
HIWQN-LTASG	–	–	–	6.292	654.784 M⁻¹ s⁻¹	0 M⁻¹ s⁻¹
HRWSA-LTASG	25.8217	12792.1 M⁻¹ s⁻¹	619.843 M⁻¹ s⁻¹	–	–	–
RQWRA-LTASG	22.4074	5889.62 M⁻¹ s⁻¹	4470.66 M⁻¹ s⁻¹	–	–	–
HAHAS-LTASG	–	–	–	26.2573	12792.1 M⁻¹ s⁻¹	142.481 M⁻¹ s⁻¹
TILRN-ITASG	19.0698	7815.03 M⁻¹ s⁻¹	2837.92 M⁻¹ s⁻¹	–	–	–
GWWMN-LTASG	–	–	–	0	1071.29 M⁻¹ s⁻¹	836.403 M⁻¹ s⁻¹
GKPAS-LDTAS	–	–	–	36.4285	1239.69 M⁻¹ s⁻¹	0 M⁻¹ s⁻¹
RSHAS-LTASG	–	–	–	26.2573	12792.1 M⁻¹ s⁻¹	0 M⁻¹ s⁻¹
VPPEA-ITASG	–	–	–	22.5231	12792.1 M⁻¹ s⁻¹	12792.1 M⁻¹ s⁻¹
SRAYS-LTASG	18.7071	7815.03 M⁻¹ s⁻¹	8941.32 M⁻¹ s⁻¹	–	–	–
GSGYH-LRHTT	0.08149	231.616 M⁻¹ s⁻¹	0 M⁻¹ s⁻¹	–	–	–
VRPRP-FTASG	32.5323	12792.1 M⁻¹ s⁻¹	10866.7 M⁻¹ s⁻¹	–	–	–
RNPEW-MTASG	–	–	–	12.3271	2996.69 M⁻¹ s⁻¹	4763.33 M⁻¹ s⁻¹
RNGLA-LTASG	–	–	–	0.6848	0 M⁻¹ s⁻¹	0 M⁻¹ s⁻¹

Substance	relative probability (RP) (MMP-2 [1]; [3])	Kobs (MMP-2 [2]; [4])	Kobs (MMP-9; [5])	relative probability (RP) (MMP-2 [1]; [6])	Kobs (MMP-2 [2]; [7])	Kobs (MMP-9; [8])
ETMLA-LTASG	–	–	–	5.6722	484.315 M⁻¹ s⁻¹	0 M⁻¹ s⁻¹
HDYFN-LTASG	–	–	–	0	27.918 M⁻¹ s⁻¹	0 M⁻¹ s⁻¹
GSGFS-LRTWT	–	–	–	0.09752	0 M⁻¹ s⁻¹	0 M⁻¹ s⁻¹
GSGQH-LRKST	–	–	–	1.164	171.876 M⁻¹ s⁻¹	0 M⁻¹ s⁻¹
LTPRY-WTASG	–	–	–	20.9965	5269.78 M⁻¹ s⁻¹	5461.43 M⁻¹ s⁻¹
DRPNY-LTASG	17.2533	4082.43 M⁻¹ s⁻¹	1196.62 M⁻¹ s⁻¹	–	–	–
RGPYH-LTASG	–	–	–	27.2418	12792.1 M⁻¹ s⁻¹	12792.1 M⁻¹ s⁻¹
TTPSW-LTASG	–	–	–	35.705	9740.44 M⁻¹ s⁻¹	12792.1 M⁻¹ s⁻¹
KDYLH-LTASG	0.4077	0 M⁻¹ s⁻¹	0 M⁻¹ s⁻¹	–	–	–
SGISY-MRITA	–	–	–	22.3091	836.403 M⁻¹ s⁻¹	0 M⁻¹ s⁻¹
RQLAH-ITASG	–	–	–	25.9365	10866.7 M⁻¹ s⁻¹	27.918 M⁻¹ s⁻¹
SGPTA-LRATA	32.8941	10866.7 M⁻¹ s⁻¹	12792.1 M⁻¹ s⁻¹	–	–	–
FPGRH-LTASG	3.598	1239.69 M⁻¹ s⁻¹	484.315 M⁻¹ s⁻¹	–	–	–
KTVVW-YTASG	9.938	3165.09 M⁻¹ s⁻¹	3850.82 M⁻¹ s⁻¹	–	–	–
GYPWS-LSTAS	28.5684	2218.08 M⁻¹ s⁻¹	7015.91 M⁻¹ s⁻¹	–	–	–
GGYAG-LRTAS	20.9112	4082.43 M⁻¹ s⁻¹	0 M⁻¹ s⁻¹	–	–	–
SLVRF-LTASG	15.0438	12792.1 M⁻¹ s⁻¹	12792.1 M⁻¹ s⁻¹	–	–	–
YDSRG-LTASG	6.164	1239.69 M⁻¹ s⁻¹	231.616 M⁻¹ s⁻¹	–	–	–
TVSYA-LTASG	–	–	–	4.7967	1154.21 M⁻¹ s⁻¹	2687.73 M⁻¹ s⁻¹
FNPIH-LTASG	26.4106	12792.1 M⁻¹ s⁻¹	10866.7 M⁻¹ s⁻¹	–	–	–
SVGLY-LTASG	0.07615	418.952 M⁻¹ s⁻¹	0 M⁻¹ s⁻¹	–	–	–
SQPHL-LTASG	–	–	–	16.4802	1816.46 M⁻¹ s⁻¹	2097.28 M⁻¹ s⁻¹
ISWLN-LTASG	–	–	–	0.1218	1112.44 M⁻¹ s⁻¹	386.839 M⁻¹ s⁻¹
FDISH-LTASG	–	–	–	30.7015	10866.7 M⁻¹ s⁻¹	171.876 M⁻¹ s⁻¹

Substance	relative probability (RP) (MMP-2 [1]; [3])	Kobs (MMP-2 [2]; [4])	Kobs (MMP-9; [5])	relative probability (RP) (MMP-2 [1]; [6])	Kobs (MMP-2 [2]; [7])	Kobs (MMP-9; [8])
EHAWN-LTASG	14.0049	2218.08 M⁻¹ s⁻¹	2280.5 M⁻¹ s⁻¹	–	–	–
SLNRA-LTASG	16.7485	12792.1 M⁻¹ s⁻¹	4470.66 M⁻¹ s⁻¹	–	–	–
QHWGG-LTASG	–	–	–	21.3794	12792.1 M⁻¹ s⁻¹	386.839 M⁻¹ s⁻¹
SQPTG-LTASG	–	–	–	33.1098	12792.1 M⁻¹ s⁻¹	12792.1 M⁻¹ s⁻¹
DSLAW-LTASG	–	–	–	22.0358	10866.7 M⁻¹ s⁻¹	1561.44 M⁻¹ s⁻¹
GYPRA-FSTAS	31.8957	12792.1 M⁻¹ s⁻¹	12792.1 M⁻¹ s⁻¹	–	–	–
FQFEH-LTASG	–	–	–	1.21	874.197 M⁻¹ s⁻¹	113.394 M⁻¹ s⁻¹
GSVHH-LITAS	14.1228	0 M⁻¹ s⁻¹	0 M⁻¹ s⁻¹	–	–	–
DLPAG-LTASG	36.0156	12792.1 M⁻¹ s⁻¹	8321.48 M⁻¹ s⁻¹	–	–	–
SLPTS-LTASG	–	–	–	28.926	8321.48 M⁻¹ s⁻¹	2097.28 M⁻¹ s⁻¹
GRLAS-LTASG	–	–	–	31.1996	12792.1 M⁻¹ s⁻¹	0 M⁻¹ s⁻¹
LPYFS-MTASG	–	–	–	0.06612	386.839 M⁻¹ s⁻¹	1660.66 M⁻¹ s⁻¹
RLPVA-ITASG	32.4892	12792.1 M⁻¹ s⁻¹	12792.1 M⁻¹ s⁻¹	–	–	–
GLAWG-LYTAS	–	–	–	17.7408	2916.17 M⁻¹ s⁻¹	2409.72 M⁻¹ s⁻¹
SGYAS-MVATA	–	–	–	24.1553	5667.28 M⁻¹ s⁻¹	0 M⁻¹ s⁻¹
GNVRS-LITAS	12.3051	12792.1 M⁻¹ s⁻¹	2476.66 M⁻¹ s⁻¹	–	–	–
GAFRH-LRTAS	3.942	201.585 M⁻¹ s⁻¹	0 M⁻¹ s⁻¹	–	–	–
GFFLH-LTTAS	–	–	–	0.8093	0 M⁻¹ s⁻¹	0 M⁻¹ s⁻¹
GSMNS-LRTAS	18.7113	3741.87 M⁻¹ s⁻¹	874.197 M⁻¹ s⁻¹	–	–	–
LWYGH-LTASG	–	–	–	11.3746	5090.5 M⁻¹ s⁻¹	0 M⁻¹ s⁻¹
GSVWA-LTASG	–	–	–	12.7502	1870.4 M⁻¹ s⁻¹	4922.1 M⁻¹ s⁻¹
GIFWH-LRTAS	–	–	–	0	0 M⁻¹ s⁻¹	0 M⁻¹ s⁻¹
